Measured values published in ChEMBL document CHEMBL1148439, “A phenylnorstatine inhibitor binding to HIV-1 protease: geometry, protonation, and subsite-pocket interactions analyzed at atomic resolution” (J Med Chem, 2004).
pKi: −log10 of the molar value.

Molecular target: Human immunodeficiency virus type 1 protease (Human immunodeficiency virus 1, UniProt Q72874, V82A)
Test: Tested for inhibitor binding of Val82Ala mutant of HIV PR
Design: species or system human immunodeficiency virus type1

NC(=O)[C@H](CCC(=O)O)NC(=O)[C@H](CCC(=O)O)NC(=O)[C@H](Cc1ccccc1)NC(=O)[C@H](O)[C@H](Cc1ccccc1)NC(=O)OCc1ccccc1
pKi: 9.96
